Data on 1 molecule can be found in patent US20230138395A1, “PHARMACEUTICAL COMPOSITIONS OF A THERAPEUTIC POLYENE MACROLIDE AND METHODS OF THEIR USE” (priority 2020, published 2023).

The data set in a line: Drug loading and stability by LC-DAD-QTOF / LC-UV. The class given is physicochemical. The note with it: high concentrations of ascorbic acid. Here is the method: The sizes and size distributions were measured using dynamic light scattering (Malvern Zetasizer and Nanoparticles Tracking Analyzer (NTA)) in phosphate buffer (pH 7). Dry weight was determined by drying three sample aliquots at 50° C. overnight. Drug loading and stability was determined weighing/pipetting three sample aliquots, dissolution in DMSO, and dilution for LC-DAD-QTOF analysis. The concentration of compound 1A was determined using three samples of amphotericin B USP as a standard. The LC-QTOF method was: • Mobile phases: 0.1% formic acid [A] and acetonitrile [B] • HPLC system: Agilent 1290 HPLC system with a 1290 DAD connected to a QTOF • Column: Polaris 3 C18, 150×2 mm, 3 μm (Varian) • Column thermostat: 30° C. • Flow rate: 0.3 ml/min • Injection volume: 2 μL • Wavelength: 385 nm for measuring compound 1A/AMB, Scan 190-600 nm • Software: MassHunter Qualitative analysis B.0.600 • Post time: 5 min • QTOF was operated in negative electrospray mode (ESI−) • The HPLC gradient is shown in Table 1.

On to `C[C@@H]1[C@H](O)[C@@H](C)/C=C/C=C/C=C/C=C/C=C/C=C/C=C/[C@H](O[C@@H]2O[C@H](C)[C@@H](O)[C@H](N)[C@@H]2O)C[C@@H]2O[C@](O)(C[C@@H](O)[C@H](O)CC[C@@H](O)C[C@@H](O)C[C@@H](O)CC(=O)O[C@H]1C)C[C@H](O)[C@H]2C` [Compound 1A], for which the stability in solution result is recorded as “chemically dehydrated”.
